{"source": "patent US20080103127A1", "about": "“METHODS FOR TREATING DISRUPTIVE BEHAVIOR DISORDERS” (priority 2006, published 2008)", "key": {"dominant rats": {"system": "dominant rats", "assay": "Reduction of Dominant Behavior Model (RDBM) of mania, dominant-submissive rat food competition test", "assay_type": "in vivo, Sprague-Dawley rats", "from_the_text": "(§1) In this study, the effects of COMPOUND #7 on dominant or submissive behavior in pairs of rats competing for food are examined. It has been shown that anti-manic drugs, including anticonvulsants, decrease dominance and antidepressant drugs reduce submissiveness. This model uses dominant behavior as a model of mania and submissive behavior as a model of depression. The dominance and submissiveness is defined in a competition test and measured as the relative success of two food-restricted rats to gain access to a feeder. Rats are randomly paired and placed in an apparatus allowing them to compete for a food reward. The dominant-submissive relationship develops over a 2-week period. The submissive or dominant animals in pairs selected after 2 weeks of training were treated orally […] (b.i.d.) with COMPOUND #7 at 3 or 30 mg/kg for 5 weeks. The partner of the drug-treated animal was treated with vehicle.\n(§2) The objective of this study was to determine if COMPOUND #7 is active in the Reduction of Submissive Behavior Model (RSBM) of depression and the Reduction of Dominant Behavior Model (RDBM) of mania. Measurements were made at two doses (3 and 30 mg/kg) after oral twice a day (b.i.d.) administration. The effect of the drug in the RSBM was compared to the effect of fluoxetine (10 mg/kg) and vehicle (0.5% methylcellulose). The effect of the drug in the RDBM was compared with the effect of lithium (100 mg/kg) and vehicle (0.5% methylcellulose). The endpoints measured were the development of a significant reduction of submissive or dominant behavior and its time of onset.\n(§3) The DSR developed by two rats competing for food uses the apparatus in FIG. 1. The methodology and equipment are described in several publications. (See, Malatynska E, Goldenberg R, Shuck L, Haque A, Zamecki P, Crites G, Schindler N, Knapp R J. Reduction of submissive behavior in rats: a test for antidepressant drug activity. Pharmacology 2002; 64:8; Malatynska E, Rapp R, Crites G. Dominant behavior measured in a competition test as a model of mania. In: International Behavioral Neuroscience Society Meeting, ed. IBNSCapri, Italy, 2002, p 26.; Bonnet U. Moclobemide: therapeutic use and clinical studies. CNS Drug Rev 2003; 9:97; Danysz W, Plaznik A, Kostowski W, Malatynska E, Jarbe T U, Hiltunen A J, Archer T. Comparison of desipramine, amitriptyline, zimeldine and alaproclate in six animal models used to investigate antidepressant drugs. Pharmacol Toxicol 1988; 62:42; Knapp R J, Goldenberg R, Shuck C, Cecil A, Watkins J, Miller C, Crites G, Malatynska E. Antidepressant activity of memory-enhancing drugs in the reduction of submissive behavior model. Eur J Pharmacol 2002; 440:27; Kostowski W, Malatynska E, Plaznik A, Dyr W, Danysz W. Comparative studies on antidepressant action of alprazolam in different animal models. Pol J Pharmacol Pharm 1986; 38, 471; Malatynska E, De Leon I, Allen D, Yamamura Hi. Effects of amitriptyline on GABA-stimulated ^36Cl^− uptake in relation to a behavioral model of depression. Brain Res Bull 1995; 37:53; Malatynska E, Kostowski W. The effect of antidepressant drugs on dominance behavior in rats competing for food. Pol J Pharmacol Pharm 1984; 36:531; Malatynska E, Kostowski W. Desipramine antagonizes clonidine-induced suppression of dominance in rats: possible involvement of amygdaloid nuclei. Pol J Pharmacol Pharm 1988; 40:357).\nIn the experiments described in this report Sprague-Dawley rats weighing 160 to 180 g were used. […]"}, "submissive rats": {"system": "submissive rats", "assay": "Reduction of Submissive Behavior Model (RSBM) of depression, dominant-submissive rat food competition test", "assay_type": "in vivo, Sprague-Dawley rats", "from_the_text": "as §1, §2, §3\nIn the experiments described in this report Sprague-Dawley rats weighing 160 to 180 g were used. Testing for the development of a DSR between paired rats begins with the random assignment of rats into pairs. Rats from pairs are housed separately between test sessions with other animals in groups of four. The animals are food-deprived overnight with free access to water.\nThe test involves placing each member of a pair in opposite chambers of the testing apparatus. These chambers are connected through a narrow tunnel with a small container of sweetened milk at the center. […]"}}, "data": [{"compound": "NC(=O)OC[C@@H](O)c1ccccc1Cl", "note": "[COMPOUND #7, carisbamate]", "values": [{"measurement": "onset of significant decrease of dominant rat performance (time of treatment)", "setting": "dominant rats; 3 mg/kg b.i.d. p.o.", "result": 3, "unit": "weeks"}, {"measurement": "extent and onset of the effect on dominant rats compared with lithium", "setting": "dominant rats; 3 mg/kg b.i.d. p.o. vs lithium 100 mg/kg i.p.", "result": "not significantly different"}, {"measurement": "performance of dominant rats", "setting": "dominant rats; 3 mg/kg b.i.d. p.o., 5 weeks, dominant rat treated, partner vehicle", "result": "decreased the performance"}, {"measurement": "onset of increased competitiveness of dominant rats (time of treatment)", "setting": "dominant rats; 30 mg/kg b.i.d. p.o.", "result": 2, "unit": "weeks"}, {"measurement": "competitiveness of dominant rats compared to water treated dominant rats", "setting": "dominant rats; 30 mg/kg b.i.d. p.o., 5 weeks, dominant rat treated", "result": "significantly increased the competitiveness"}, {"measurement": "effect on submissive rat behavior", "setting": "submissive rats; 3 mg/kg b.i.d. p.o., 5 weeks, submissive rat treated, partner vehicle", "result": "did not have any effect"}, {"measurement": "onset of increased competitiveness of submissive rats (time of treatment)", "setting": "submissive rats; 30 mg/kg b.i.d. p.o.", "result": 1, "unit": "week"}, {"measurement": "efficacy in submissive rats compared with fluoxetine", "setting": "submissive rats; 30 mg/kg b.i.d. p.o. vs fluoxetine 10 mg/kg i.p. once a day", "result": "same efficacy as fluoxetine"}, {"measurement": "competitiveness of submissive rat compared to vehicle-treated submissive rats", "setting": "submissive rats; 30 mg/kg b.i.d. p.o., 5 weeks, submissive rat treated", "result": "significantly increased competitiveness"}]}]}
